Reference: US20110190249A1, “THERAPEUTIC METHODS AND USES OF SAPOGENINS AND THEIR DERIVATIVES” (PHYTOPHARM PLC, priority 2002, published 2011)

Key:
[1] = test system: rat primary cortical neurones; test: Reversal of glutamate-induced neurodegeneration (LDH), treatment after glutamate exposure; assay type: cell-based; conditions: LDH after 24 h, control = 100
Description: Neuronal cell survival was evaluated by measuring lactate dehydrogenase (LDH) activity released in the media 24 h after test compound treatment or glutamate+test compound exposure, using the CytoTox 96 non-radioactive kit and quantitated by measuring wavelength absorbance at 450 nm.
As above mentioned, exposure of rat primary cortical cultures to glutamate (100 μM; 10 min) caused an increase in lactate dehydrogenase (LDH) activity measured after 24 h, indicating a significant neurodegeneration.

[2] = test system: rat primary spinal motor neurones; test: Glutamate-induced neurodegeneration in spinal motor neurones (LDH); assay type: cell-based; conditions: 3 nM for 48 h after glutamate 4 microM 10 min; control 100 ± 1
Description: The objective of this study was to examine the effects of sarsasapogenin and smilagenin on the survival of rat primary spinal motor neurones exposed to glutamate, which is known to induce neurodegeneration in this model of motor neurodegeneration.
Rat motor neurones were prepared according to the method described by (Martinou et al, Neuron, 8, 737-744, 1992). On day 10, medium was removed and the cultures were exposed to glutamate (4 microM) for 10 min at 37° C. in defined medium. After the glutamate exposure, cultures were washed with Dulbecco modified Eagle medium at 37° C. then placed in fresh culture medium containing test compounds. After 48 h, the extent of spinal motor neurone degeneration was determined by measuring the amount of lactate dehydrogenase (LDH) released into the culture medium as above.

[3] = 3 nM after glutamate 100 μM 10 min
[4] = 30 nM after glutamate 100 μM 10 min

CC(C)CCC1OC2C[C@H]3[C@@H]4CC[C@@H]5C[C@@H](O)CC[C@]5(C)[C@H]4CC[C@]3(C)[C@H]2[C@@H]1C (stereo partly drawn) [16,22-epoxycoprostan-3β-ol]
Cortical neurones previously exposed to glutamate, Mean ± s.e.m (%) [1, 3]: 114 ± 7%
Cortical neurones previously exposed to glutamate, Mean ± s.e.m (%) [1, 4]: 134 ± 5%

CC(C)CCC[C@@H](C)[C@H]1CC[C@H]2[C@@H]3CC[C@@H]4C[C@@H](O)CC[C@]4(C)[C@H]3CC[C@]12C [Coprosterol, coprosterol]
Cortical neurones previously exposed to glutamate, Mean ± s.e.m (%) [1, 3]: 126 ± 5%
Cortical neurones previously exposed to glutamate, Mean ± s.e.m (%) [1, 4]: 116 ± 4%

CC1CCC2(OC1)OC1CC3C4CCC5CC(OC(=O)CN)CCC5(C)C4CCC3(C)C1C2C.Cl (stereo not drawn) [Smilagenin glycinate hydrochloride, smilagenin glycinate hydrochloride]
Cortical neurones previously exposed to glutamate, Mean ± s.e.m (%) [1, 3]: 117 ± 4%
Cortical neurones previously exposed to glutamate, Mean ± s.e.m (%) [1, 4]: 141 ± 6%

C[C@@H]1CC[C@@]2(OC1)O[C@H]1C[C@H]3[C@@H]4CC[C@@H]5CC(=O)CC[C@]5(C)[C@H]4CC[C@]3(C)[C@H]1[C@@H]2C [Smilagenone, smilagenone]
Cortical neurones previously exposed to glutamate, Mean ± s.e.m (%) [1, 3]: 119 ± 7%
Cortical neurones previously exposed to glutamate, Mean ± s.e.m (%) [1, 4]: 119 ± 4%

B1: BDNF: brain-derived neurotrophic factor, positive control (protein, UniProt P23560 19-247, looked up)
Neurotrophic factor BDNF …: APMKEANIRGQGGLAYPGVRTHGTLESVNGPKAGSRGLTSLADTFEHVIEELLDEDQKVRPNEENNKDADLYTSRVMLSSQVPLEPPLLFLLEEYKNYLDAANMSMRVRRHSDPARRGELSVCDSISEWVTAADKKTAVDMSGGTVTVLEKVPVSKGQLKQYFYETKCNPMGYTKEGCRGIDKRHWNSQCRTTQSYVRALTMDSKKRIGWRFIRIDTSCVCTLTIKRGR
Glutamate-induced neurodegeneration in spinal motor neurones, Mean ± s.e.m (%) [2]: 148 ± 8%
